Patent US12396964B2 (Shinkei Therapeutics, Inc., priority 2021, dated 2025)
Counter-ions that a name gives are not always drawn.

Legend:
clinical = conditions: human, in vivo
Description: The subjects received the test treatments as described in Table 1 below, under direct observation following an overnight fast of at least 10 hours.
Plasma concentrations of amantadine increased rapidly and reached maximum plasma concentrations at around 3 hours after start of the IV infusion.
The plasma amantadine concentrations from healthy adults enrolled in the open-label, multiple-cohort, single-period non-randomized single-ascending dose study of Example 1 were used to determine the decrease in concentration of amantadine over time, after the administration of the first dose of 100 mg and 150 mg in different cohorts. The data is supportive in determining the timing of the second dose of amantadine.

[1] = Safety and tolerability study of amantadine hydrochloride IV solution 200 mg with plasma sampling in healthy adult subjects (Example 2); type: in vivo, human; conditions: 200 mg IV
Description: 4 mL venous blood was collected before dosing (0 hour) and at the following nominal times after dosing: 0.5, 1, 2, 3, 4, 5, 5.5, 6, 7, 9, 12, 16, 24, 36, 48 and 72 hours post-dose. Safety was assessed by qualified study staff by evaluating the following: reported adverse events, clinical laboratory test results, vital sign measurements, ECG findings, physical examination findings at screening and clinic exit (including body weight and height measurements), and concomitant medication usage. The blood samples collected were used to assess the decrease in concentration of amantadine in the plasma over time, and is tabulated in Table 3 below.

[2] = Applicants' finding on safety of the intravenous dose, volume and rate of administration
Description: As discussed above, the volume of fluid is not only critical in terms of increase in ICP, but it is also critical in terms of defining the time of administration of the dose, and therefore, the rate of administration of the dose. […] Each dose is administered over a period of 180 minutes, i.e. at a rate of about 1.39 ml/min.

Structure (SMILES): NC12CC3CC(CC(C3)C1)C2 [amantadine hydrochloride]
- half-life (clinical; both sexes, iv, T1/2): 11.4 h
- Tmax (clinical; both sexes, iv, Tmax): 3 h
- half-life (clinical; both sexes, iv, half-life (T½)): 11 to 15 h
- Tmax (clinical; both sexes, iv, maximum plasma concentration (Tmax)): 3 to 4 h
- half-life (clinical; both sexes, iv, mean elimination half-life): 11.5 to 14.5 h
- increase of AUC0-28, more than proportional to the dose (clinical; both): ~3 fold
- increase of Cmax, more than proportional to the dose (clinical; both): ~2.3 fold
- Tmax (clinical; both, iv): 3.25 h
- plasma levels remained detectable post-dose (clinical; both, iv, 3 h): 48 to 72 h
- % decrease in plasma amantadine concentration ([1]; 0 hr after first dose): 0.0%
- % decrease in plasma amantadine concentration ([1]; 1 hr after first dose): 14.0%
- % decrease in plasma amantadine concentration ([1]; 2 hr after first dose): 20.9%
- % decrease in plasma amantadine concentration ([1]; 2.5 hr after first dose): 24.5%
- % decrease in plasma amantadine concentration ([1]; 3 hr after first dose): 26.2%
- % decrease in plasma amantadine concentration ([1]; 4 hr after first dose): 30.0%
- % decrease in plasma amantadine concentration ([1]; 6 hr after first dose): 34.5%
- % decrease in plasma amantadine concentration ([1]; 9 hr after first dose): 48.3%
- safety of the dose ([2]; about 100 mg to about 200 mg in a volume of 250 ml as a single dose, over 180 minutes, twice a day): safe
- safety of the rate of administration ([2]; rate ranging between 0.5 mg/min to about 1.2 mg/min): safe
